# Measured values reported in patent publication US9067898B1, “Isothiazole derivatives as GPR120 agonists for the treatment of type II diabetes” (Janssen Pharmaceutica NV, priority 2014, dated 2015).
# Key:
# [1] = molecular target: T1, long form of human GPR120 (Homo sapiens, UniProt Q5NUL3); test: Human GPR120 DiscoveRx PathHunter Beta-Arrestin assay, Procedure β-arrestin A; assay type: cell-based; details: PathHunter CHO-K1 GPR120 β-Arrestin cell line, 3000 cells per well, read-out: hGPR120 β-arrestin A EC50
# T1 construct: host or cells: PathHunter CHO-K1 GPR120 β-Arrestin Cell Line
# T1 sequence (Q5NUL3 1-377 isoform Q5NUL3-1): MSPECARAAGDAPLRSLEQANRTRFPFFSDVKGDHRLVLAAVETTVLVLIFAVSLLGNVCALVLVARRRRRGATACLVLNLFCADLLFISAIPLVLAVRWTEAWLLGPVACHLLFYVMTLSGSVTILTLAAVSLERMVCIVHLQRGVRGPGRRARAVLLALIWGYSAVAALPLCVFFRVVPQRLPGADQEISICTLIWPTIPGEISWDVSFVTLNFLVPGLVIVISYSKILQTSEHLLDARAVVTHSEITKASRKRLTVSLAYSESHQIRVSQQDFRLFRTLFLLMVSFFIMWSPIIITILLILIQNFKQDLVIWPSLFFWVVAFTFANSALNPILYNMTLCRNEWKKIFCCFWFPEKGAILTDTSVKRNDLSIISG
# T1 sequence (P32121 whole entry partner): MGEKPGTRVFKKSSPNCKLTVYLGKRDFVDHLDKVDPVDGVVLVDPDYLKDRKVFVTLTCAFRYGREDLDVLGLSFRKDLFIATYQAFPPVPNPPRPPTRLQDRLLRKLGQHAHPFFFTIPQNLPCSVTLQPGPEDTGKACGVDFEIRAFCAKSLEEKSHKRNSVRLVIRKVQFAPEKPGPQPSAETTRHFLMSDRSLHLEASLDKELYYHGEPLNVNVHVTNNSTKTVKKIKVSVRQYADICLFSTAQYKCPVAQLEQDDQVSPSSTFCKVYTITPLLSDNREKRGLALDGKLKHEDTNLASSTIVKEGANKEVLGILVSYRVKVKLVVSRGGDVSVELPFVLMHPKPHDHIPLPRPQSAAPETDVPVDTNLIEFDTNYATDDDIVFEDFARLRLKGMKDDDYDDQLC
# Summary of the method: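 PathHunter CHO-K1 β-arrestin cells expressed long-form GPR120 (Procedure A, 3000 cells/well) or short-form GPR120 (Procedure B, 5000 cells/well). Compounds were serially diluted from 25 µM and incubated 90 min at 37 °C in HBSS/20 mM HEPES/0.1% BSA, pH 7.4. Luminescence was read after 60 min detection at RT; EC50 comes from % activity versus positive control, Hill slope fixed at 1.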
# Human GPR120 short form = molecular target: T2, Human GPR120 short form (Homo sapiens, UniProt Q5NUL3); test: Human GPR120 calcium flux assay (FLIPR), Procedure Calcium A; assay type: cell-based; details: HEK-293 cells expressing human GPR120 short form, 2500 cells/well; read-out: GPR120 Ca2+ Assay A EC50
# T2 construct: expressed in transfected cells
# T2 sequence (Q5NUL3 1-361): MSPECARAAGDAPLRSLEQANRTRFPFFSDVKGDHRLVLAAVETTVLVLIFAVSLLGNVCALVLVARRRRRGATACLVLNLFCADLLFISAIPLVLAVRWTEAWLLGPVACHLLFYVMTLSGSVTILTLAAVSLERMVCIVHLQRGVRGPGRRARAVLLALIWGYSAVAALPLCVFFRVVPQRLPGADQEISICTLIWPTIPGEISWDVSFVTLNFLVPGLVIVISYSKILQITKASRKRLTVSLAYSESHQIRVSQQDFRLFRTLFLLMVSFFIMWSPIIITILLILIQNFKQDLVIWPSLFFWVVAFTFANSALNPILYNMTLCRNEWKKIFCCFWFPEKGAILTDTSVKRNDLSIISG
# Summary of the method: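 HEK293 cells stably expressing the short isoform (NM_001195755.1), 2500/well, starved 1 h, then loaded with Fluo-4 NW plus probenecid (30 min 37 °C, 15 min RT). Compound solutions 0.012–100 μM, 0.2% DMSO final; FLIPR read 300 s after addition. EC50 from Fmax−Fmin fitted to variable-slope sigmoid (Hill <2).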
Molecule,EC50 [1] [µM],EC50 (Human GPR120 short form) [µM]
"Cc1c(CCC(=O)O)ccc(OCc2c(-c3c(F)cc(Cl)cc3F)nsc2C(F)(F)F)c1C [Cpd 133, 3-(4-((3-(4-chloro-2,6-difluorophenyl)-5-(trifluoromethyl)isothiazol-4-yl)methoxy)-2,3-dimethylphenyl)propanoic acid]",0.539,0.131
"CCc1ccc(-c2cscc2COc2ccc(CCC(=O)O)c(C)c2C)cc1 [Cpd 41, 3-(4-((4-(4-ethylphenyl)thiophen-3-yl)methoxy)-2,3-dimethylphenyl)propanoic acid]",0.711,0.142
"Cc1c(CCC(=O)O)ccc(OCc2csnc2-c2ccc(Br)cc2)c1C [Cpd 170, 3-(4-((3-(4-bromophenyl)isothiazol-4-yl)methoxy)-2,3-dimethylphenyl)propanoic acid]",0.813,0.225
"OCCCc1cc(F)c(OCc2c(C3CCCC3)nsc2C(F)(F)F)c(F)c1 [Cpd 141, 3-(4-[[3-cyclopentyl-5-(trifluoromethyl)-1,2-thiazol-4-yl]methoxy]-3,5-difluorophenyl)propan-1-ol]",0.105,0.148
"COc1ccc(-c2nsc(C(F)(F)F)c2COc2ccc(CCC(=O)O)c(C)c2C)cc1 [Cpd 86, 3-(4-[[3-(4-methoxyphenyl)-5-(trifluoromethyl)-1,2-thiazol-4-yl]methoxy]-2,3-dimethylphenyl) propanoic acid]",0.085,0.057
"CCc1ccc(-c2snc(Cl)c2COc2c(F)cc(CCC(=O)O)c(F)c2F)cc1 [Cpd 111, 3-(4-((3-chloro-5-(4-ethylphenyl)isothiazol-4-yl)methoxy)-2,3,5-trifluorophenyl)propanoic acid]",0.244,0.098
"O=C(O)CCc1ccc(OCc2c(Cl)nsc2-c2ccc(Cl)cc2)c(F)c1F [Cpd 72, 3-(4-[[3-chloro-5-(4-chlorophenyl)-1,2-thiazol-4-yl]methoxy]-2,3-difluorophenyl)propanoic acid]",0.103,0.039
"CCc1ccc(-c2ccsc2COc2c(F)cc(CCCO)cc2F)cc1 [Cpd 20, 3-(4-[[3-(4-ethylphenyl)thiophen-2-yl]methoxy]-3,5-difluorophenyl)propan-1-ol]",0.168,0.657
"CCc1ccc(-c2cc(Cl)sc2COc2c(F)cc(CCCO)cc2F)cc1 [Cpd 9, 3-(4-[[5-chloro-3-(4-ethylphenyl)thiophen-2-yl]methoxy]-3,5-difluorophenyl)propan-1-ol]",0.203,0.117
"O=C(O)CCc1cc(F)c(OCc2c(-c3ccc4c(c3)OCO4)csc2C(F)(F)F)c(F)c1 [Cpd 44, 3-(4-((4-(benzo[d][1,3]dioxol-5-yl)-2-(trifluoromethyl)thiophen-3-yl)methoxy)-3,5-difluorophenyl)propanoic acid]",0.456,0.152
"CCc1ccc(-c2snc(Cl)c2COc2c(F)cc(CCCO)cc2F)cc1 [Cpd 183, 3-(4-[[3-chloro-5-(4-ethylphenyl)-1,2-thiazol-4-yl]methoxy]-3,5-difluorophenyl)propan-1-ol]",0.052,0.3
"CCc1ccc(-c2nsc(C(F)(F)F)c2COc2ccc(CC(C)C(=O)O)cc2F)cc1 (centres unmarked) [Cpd 105, 3-(4-((3-(4-ethylphenyl)-5-(trifluoromethyl)isothiazol-4-yl)methoxy)-3-fluorophenyl)-2-methylpropanoic acid]",0.217,0.086
"CCc1ccc(-c2sccc2COc2c(F)cc(CCC(=O)O)cc2F)cc1 [Cpd 52, 3-(4-((2-(4-ethylphenyl)thiophen-3-yl)methoxy)-3,5-difluorophenyl)propanoic acid]",0.344,0.181
"CCc1ccc(-c2ccsc2COc2ccc(CCCO)c(F)c2F)cc1 [Cpd 4, 3-(4-[[3-(4-ethylphenyl)thiophen-2-yl]methoxy]-2,3-difluorophenyl)propan-1-ol]",0.261,0.059
"CCc1ccc(-c2nsc(C(F)(F)F)c2COc2c(F)cc(CCCO)c(F)c2F)cc1 [Cpd 238, 3-(4-((3-(4-ethylphenyl)-5-(trifluoromethyl)isothiazol-4-yl)methoxy)-2,3,5-trifluorophenyl)propan-1-ol]",0.09,0.521
"CCc1ccc(-c2snc(Cl)c2COc2ccc(CCCO)c(F)c2F)cc1 [Cpd 83, 3-(4-((3-chloro-5-(4-ethylphenyl)isothiazol-4-yl)methoxy)-2,3-difluorophenyl)propan-1-ol]",0.054,0.056

Molecule,EC50 [1] [µM],EC50 (Human GPR120 short form) [µM]
"O=C(O)/C=C/c1ccc(OCc2c(Cl)nsc2-c2ccc(Cl)cc2)c(F)c1F [Cpd 185, (E)-3-(4-((3-chloro-5-(4-chlorophenyl)isothiazol-4-yl)methoxy)-2,3-difluorophenyl)acrylic acid]",0.324,0.301
"CCc1ccc(-c2snc(Cl)c2COc2c(F)cc(CCCO)c(F)c2F)cc1 [Cpd 140, 3-(4-((3-chloro-5-(4-ethylphenyl)isothiazol-4-yl)methoxy)-2,3,5-trifluorophenyl)propan-1-ol]",0.067,0.139
"O=C(O)CCc1cc(F)c(OCc2csnc2-c2ccc(Br)cc2)c(F)c1 [Cpd 169, 3-(4-((3-(4-bromophenyl)isothiazol-4-yl)methoxy)-3,5-difluorophenyl)propanoic acid]",0.486,0.225
"3-(4-((3-chloro-5-(4-ethylphenyl)isothiazol-4-yl)methoxy)-2,3,5-trifluorophenyl)propan-1-ol [Cpd 140]",0.116,0.2
"OCCCc1cc(F)c(OCc2sc(Cl)cc2-c2ccc(Cl)cc2)c(F)c1 [Cpd 19, 3-(4-[[5-chloro-3-(4-chlorophenyl)thiophen-2-yl]methoxy]-3,5-difluorophenyl)propan-1-ol]",0.108,0.634
"COc1ccc(-c2csc(C(F)(F)F)c2COc2c(F)cc(CCCO)cc2F)cc1 [Cpd 45, 3-(3,5-difluoro-4-((4-(4-methoxyphenyl)-2-(trifluoromethyl)thiophen-3-yl)methoxy)phenyl)propan-1-ol]",0.123,0.154
"Cc1c(CCC(=O)O)ccc(OCc2c(Cl)nsc2-c2cccc(Cl)c2)c1C [Cpd 156, 3-(4-[[3-chloro-5-(3-chlorophenyl)-1,2-thiazol-4-yl]methoxy]-2,3-dimethylphenyl)propanoic acid]",0.368,0.185
"Cc1ccc(-c2nsc(C(F)(F)F)c2COc2c(F)cc(CCC(=O)O)cc2F)cc1 [Cpd 115, 3-(3,5-difluoro-4-[[3-(4-methylphenyl)-5-(trifluoromethyl)-1,2-thiazol-4-yl]methoxy]phenyl) propanoic acid]",0.07,0.104
"O=C(O)CCc1ccc(OCc2csnc2-c2ccc(Cl)cc2)c(F)c1F [Cpd 189, 3-(4-((3-(4-chlorophenyl)isothiazol-4-yl)methoxy)-2,3-difluorophenyl)propanoic acid]",0.612,0.31
"COc1ccc(-c2nsc(C(F)(F)F)c2COc2c(F)cc(CCC(=O)O)cc2F)cc1 [Cpd 99, 3-(3,5-difluoro-4-[[3-(4-methoxyphenyl)-5-(trifluoromethyl)-1,2-thiazol-4-yl]methoxy]phenyl)propanoic acid]",0.091,0.075
"O=C(O)CCc1cc(F)c(OCc2c(-c3ccc4c(c3)CCO4)csc2C(F)(F)F)c(F)c1 [Cpd 51, 3-(4-((4-(2,3-dihydrobenzofuran-5-yl)-2-(trifluoromethyl)thiophen-3-yl)methoxy)-3,5-difluorophenyl)propanoic acid]",0.213,0.172
"CCc1ccc(-c2cc(Cl)sc2COc2ccc(CCC(=O)O)c(F)c2F)cc1 [Cpd 11, 3-(4-[[5-chloro-3-(4-ethylphenyl)thiophen-2-yl]methoxy]-2,3-difluorophenyl)propanoic acid]",0.222,0.126
"CCc1ccc(-c2nsc(C(F)(F)F)c2COc2c(F)cc(CCC(=O)O)cc2F)cc1 [Cpd 70, 3-(4-[[3-(4-ethylphenyl)-5-(trifluoromethyl)-1,2-thiazol-4-yl]methoxy]-3,5-difluorophenyl)propanoic acid]",0.098,0.034
"Cc1cc(OCc2c(-c3ncc(Cl)cc3F)nsc2C(F)(F)F)c(F)cc1CCC(=O)O [Cpd 206, 3-(4-((3-(5-chloro-3-fluoropyridin-2-yl)-5-(trifluoromethyl)isothiazol-4-yl)methoxy)-5-fluoro-2-methylphenyl)propanoic acid]",0.54,0.551
"O=C(O)CCc1ccc(OCc2csnc2-c2ccc(Br)cc2)c(F)c1F [Cpd 187, 3-(4-((3-(4-bromophenyl)isothiazol-4-yl)methoxy)-2,3-difluorophenyl)propanoic acid]",0.889,0.305
